Results as given in patent US20110262561A1, “Protoilludance Norsesquiterpenoid Esters and Uses Thereof” (NATIONAL RESEARCH INSTITUTE OF CHINESE MEDICINE, priority 2010, published 2011).
pIC50: −log10 of the molar value. Like-named read-outs stand apart in the source and are kept apart here.

Columns and labels:
MCF-7 = assay: Alamar blue cytotoxicity assay on MCF-7 cancer cells; assay type: cell-based; settings: for pIC50: Homo sapiens, MCF7, alamar blue, 48 hours treatment
Method: (§1) The endothelial cells (human endothelial-like cells, Eahy926) and 4 cancer cell lines (MCF-7, H460, HT-29, and CEM) were derived from the American Type Culture Collection (ATCC) and were maintained in DMEM or RPMI medium (Life Technologies) supplemented with 2 mM L-glutamine and 10% heat-inactivated fetal bovine serum (FBS) (Life Technologies) under standard culture conditions. The cell viability and cell number were determined by the Trypan Blue dye-exclusion method.
(§2) The alamar blue (AB) assay (dye purchased from Biosource International, Nivelles, Belgium) was used to estimate cell viability in accordance with procedures previously described by Fatokun et al (Bone (2006) 39, 542-551). Briefly, cells were treated with various concentration of each of the test compounds (e.g., compounds of example 1.1) at 37° C. for 48 hours, and the medium in each well was then aspirated at the end of the treatment, 100 μL of fresh medium containing 10% v/v AB was then added to the control and the treated wells, respectively. Plates were then incubated at 37° C. for 6 hour prior to measuring the absorbance at 570 nm and at 600 nm wavelengths using a spectrophotometric plate reader (DYNEX Technologies, USA). Experimental data were normalized to control values. CH-205-A, K, L, O, and -P were effective on MCF-7 cells; CH-205-A, H, K, L, O, and -P were effective on H460 cells; CH-205-A and -P were effective on HT-29 cells and CH-205-A, H, N, and -O were effective on CEM cells.

H460 = assay: Alamar blue cytotoxicity assay on H460 cancer cells; assay type: cell-based, human; settings: for pIC50: Homo sapiens, NCI-H460, alamar blue, 48 hours treatment
Method: as §1, §2

HT-29 = assay: Alamar blue cytotoxicity assay on HT-29 cancer cells; assay type: cell-based; settings: for pIC50: Homo sapiens, HT-29, alamar blue, 48 hours treatment
Method: as §1, §2

CEM = assay: Alamar blue cytotoxicity assay on CEM cancer cells; assay type: cell-based; settings: for pIC50: Homo sapiens, CCRF-CEM, alamar blue, 48 hours treatment
Method: as §1, §2

[1] = MTT cell viability of endothelial cells (ECs); assay type: cell-based, human; settings: human, column head prints none, read-out: Cell viability IC50 (cytotoxicity concentration on ECs)
Method: as §1
(§3) Anti-angiogenic effects of CH-205 compounds were estimated by their inhibition on the growth of endothelial cells. The toxicity of CH-205 compounds to endothelial cells was estimated using MTT (3-(4,5-dimethy;thiazol-2-yl)-2,5-diphenyltetrazolium bromide, a tetrazole) assay. MTT assay is a standard colorimetric assay (an assay which measures changes in color) for measuring the activity of enzymes that reduce yellow MTT to formazan, giving a purple color. It is also used to determine cytotoxity of potential medicinal agents and other toxic materials, since those agents would result in cell toxicity and therefore metabolic dysfunction and therefore decreased performance in the assay. The cytotoxity concentrations of the CH-205 compounds measured in MTT test are all over 20 μM (Table 2), however, their effects on angiogenesis inhibition are in nM range, indicating the safety of these compounds (Table 3).

[2] = system: endothelial cells (human endothelial-like cells, Eahy926); assay: MTT cell viability of endothelial cells (ECs); assay type: cell-based
Method: as §1, §3

endothelial cells (ECs) = assay: In vitro antiangiogenesis on ECs (inhibition of endothelial cell growth); assay type: cell-based; settings: Homo sapiens, read-out: In vitro antiangiogenesis IC50
Method: as §1, §3

[3] = system: H460 human lung cancer tumor xenograft; settings: for tumor volume after sacrifice: control 1.743±0.129
Method: The established, transplantable, 5×10^6/200 μL H460 tumor cells were prepared in RPMI medium. The 200 μL of cell suspension was injected subcutaneously into right flank area of each mouse. The mice were randomized into vehicle control and drug treatment groups of four-six animals each when xenografts were palpable with a tumor size of 40 mm^3. Adminitration of the lead compounds or vehicle began on day 15 when the median tumor size was ranged from 75 to 80 mm^3. Tumor-bearing animals were randomized (five per group) prior to treatment. The candidate test drugs were intraperitoneal (IP) administered into with optimal dosage once every other day (48 hr apart) for 7 or 10 times. […] Solvent vehicle and cisplatin (5 mg/kg) were used to administrate, respectively, as io negative and positive controls. Two days after last administration of tested compounds, the animals were sacrificed. The tumor dimensions were measured every other day using a linear caliper and tumor volume is calculated using the equation V (mm^3)=a×b^2/2, where a is the largest diameter and b is the smallest diameter. Body weights are also recorded once weekly. Tumor is growth inhibition ratio (TGI) is calculated using the equation TGI=(1−(the mean treated tumor mass/mean control tumor mass))*100%.

Row | Compound | pIC50 (MCF-7) | pIC50 (H460) | pIC50 (HT-29) | pIC50 (CEM) | Cell viability (% of control) 1 μM [2] | Cell viability (% of control) 10 μM [2] | Cell viability (% of control) 50 μM [2] | Cell viability (% of control) 100 μM [2] | Cell viability (% of control) 250 μM [2] | Cell viability (% of control) 500 μM [2] | effective on MCF-7 cells (MCF-7) | effective on H460 cells (H460) | pIC50 ([1]; Eahy926 endothelial-like cells) | pIC50 (endothelial cells (ECs); ECs) | other results
1 | Cc1c(Cl)c(O)cc(O)c1C(=O)O[C@@H]1C[C@]2(C)C3[C@@H](O)C(C)(C)C[C@@]3(O)C=C(C=O)[C@]12O (stereo partly drawn) [CH-205-Q, (2R,2aS,4aR,7R,7bR)-3-formyl-2,2a,4a,5,6,7,7a,7b-octahydro-2a,4a,7-trihydroxy-6,6,7b-trimethyl-1H-cyclobuta[e]inden-2-yl 3-chloro-4,6-dihydroxy-2-methyl benzoate] | < 4.00 | < 4.00 | < 4.00 | < 4.00 | 104.7 % of control | 98.9 % of control | 105.5 % of control | 108.6 % of control | 100.2 % of control | 74.1 % of control |  |  |  |  | pIC50 [1]: < 3.30; pIC50 (endothelial cells (ECs)): 9.00
2 | Cc1cc(O)cc(O)c1C(=O)O[C@@H]1C[C@]2(C)C3CC(C)(C)CC3C=C(CO)[C@]12O (stereo partly drawn) [CH-205-L, (2R,2aS,7bR)-2,2a,4a,5,6,7,7a,7b-octahydro-2a-hydroxy-3-(hydroxymethyl)-6,6,7b-trimethyl-1H-cyclobuta[e]inden-2-yl 2,4-dihydroxy-6-methylbenzoate] | 5.08 | 5.29 | 4.23 | 4.39 | 93.2 % of control | 118.8 % of control | 6.5 % of control | 6.4 % of control | 6.5 % of control | 9.8 % of control | effective | effective | 4.68 | 8.96 | 
3 | Cc1c(Cl)c(O)cc(O)c1C(=O)O[C@@H]1C[C@]2(C)C3CC(C)(C)CC3C=C(CO)[C@]12O (stereo partly drawn) [CH-205-K, (2R,2aS,7bR)-2,2a,4a,5,6,7,7a,7b-octahydro-2a-hydroxy-3-(hydroxymethyl)-6,6,7b-trimethyl-1H-cyclobuta[e]inden-2-yl 3-chloro-4,6-dihydroxy-2-methylbenzoate] | 5.32 | 5.35 | 4.25 | 4.54 | 103.7 % of control | 122.7 % of control | 6.4 % of control | 6.4 % of control | 7.0 % of control | 8.8 % of control | effective | effective | 4.67 | 8.49 | tumor volume after sacrifice ([3]; CH-205-K study, 4 mg/kg IP every other day, 7 times): 1.364±0.14 cm^3; Tumor growth inhibition ratio (TGI) ([3]; CH-205-K study, 4 mg/kg IP, 7 times): 21.74%; tumor volume after sacrifice ([3]; CH-205-K study, 20 mg/kg IP every other day, 7 times): 1.283±0.077 cm^3; Tumor growth inhibition ratio (TGI) ([3]; CH-205-K study, 20 mg/kg IP, 7 times): 26.38%; tumor volume after sacrifice ([3]; CH-205-K study, 40 mg/kg IP every other day, 7 times): 1.109±0.119 cm^3; Tumor growth inhibition ratio (TGI) ([3]; CH-205-K study, 40 mg/kg IP, 7 times): 36.38%; tumor volume after sacrifice ([3]; CH-205-K study, 80 mg/kg IP every other day, 7 times): 0.867±0.086 cm^3; Tumor growth inhibition ratio (TGI) ([3]; CH-205-K study, 80 mg/kg IP, 7 times): 50.29%; effect on body weight ([3]; mouse, in vivo): no different effect on body weight
4 | COc1cc(O)c(C(=O)O[C@@H]2C[C@]3(C)C4[C@@H](O)C(C)(C)C[C@@]4(O)C=C(C=O)[C@]23O)c(C)c1Cl (stereo partly drawn) [CH-205-E, (2R,2a6,4aR,7R,7bR)-3-formyl-2,2a,4a,5,6,7,7a,7b-octahydro-2a,4a,7-trihydroxy-6,6,7b-trimethyl-1H-cyclobuta[e]inden-2-yl 3-chloro-6-hyd roxy-4-methoxy-2-methylbenzoate] | < 4.00 | < 4.00 | 4.07 | 4.30 | 93.5 % of control | 98.6 % of control | 80.8 % of control | 63.7 % of control | 32.1 % of control | 7.4 % of control |  |  | 3.66 | 7.64 | 
5 | COc1cc(O)c(C(=O)O[C@@H]2C[C@]3(C)C4C(C=C(C=O)[C@]23O)CC(C)(C)[C@@H]4O)c(C)c1Cl (stereo partly drawn) [CH-205-P, (2R,2aS,7R,7bR)-3-formyl-2,2a,4a,5,6,7,7a,7b-octahydro-2a,7-dihydroxy-6,6,7b-trimethyl-1H-cyclobuta[e]inden-2-yl 3-chloro-6-hydroxy-4-methoxy-2-methylbenzoate] | 5.36 | 5.24 | 4.46 | 4.35 | 105.1 % of control | 78.5 % of control | 6.8 % of control | 9.8 % of control | 6.8 % of control | 9.6 % of control | effective | effective | 4.68 | 8.74 | effective on HT-29 cells (HT-29): effective
6 | Cc1c(Cl)c(O)cc(O)c1C(=O)O[C@@H]1C[C@]2(C)[C@H]3CC(C)(C)C[C@@]3(O)C=C(C=O)[C@]12O [CH-205-N, (2R,2aS,4aR,7aR,7bR)-3-formyl-2,2a,4a,5,6,7,7a,7b-octahydro-2a,4a-dihydroxy-6,6,7b-trimethyl-1H-cyclobuta[e]inden-2-yl 3-chloro-4,6-dihydroxy-2-methylbenzoate] | < 4.00 | < 4.00 | 4.49 | 5.26 | 96.5 % of control | 94.1 % of control | 96.5 % of control | 85.1 % of control | 55.2 % of control | 7.6 % of control |  |  | 3.57 | 8.46 | effective on CEM cells (CEM): effective
7 | COc1cc(O)c(C(=O)O[C@@H]2C[C@@]3(C)C2=C(C=O)C=C2CC(C)(C)C[C@@H]23)c(C)c1Cl [CH-205-A] | 5.32 | 5.26 | 5.34 | 5.24 | 101.4 % of control | 87.9 % of control | 17.7 % of control | 8.4 % of control | 7.1 % of control | 7.9 % of control | effective | effective | 4.62 |  | effective on HT-29 cells (HT-29): effective; effective on CEM cells (CEM): effective; pIC50 (endothelial cells (ECs)): 7.39
8 | N.N.[Cl][Pt][Cl] [cisplatin, reference compound] |  |  |  |  |  |  |  |  |  |  |  |  |  |  | Tumor growth inhibition ratio (TGI) ([3]; CH-205-K study, positive control 5 mg/kg (fifth value of the sentence)): 77.78%; Tumor growth inhibition ratio (TGI) ([3]; CH-205-O study, positive control 5 mg/kg): 82%
